Experimental data published in PubChem BioAssay (NCI).
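These data come from cells grown in 96-well plates and exposed to compound for 48 hours at five concentrations. The concentration for 50% growth inhibition is given as GI50. TGI marks complete inhibition of growth.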

Experiments:
Test in all cases: NCI anticancer screen, dose series, 48 h
[1] = system: ACHN renal
[2] = system: DU-145 prostate
[3] = system: HCC-2998 colon
[4] = system: MDA-MB-231 breast
[5] = system: NCI/ADR-RES ovarian
[6] = system: OVCAR-5 ovarian
[7] = system: SF-539 CNS
[8] = system: SK-OV-3 ovarian
[9] = system: SN12C renal
[10] = system: SR leukemia
[11] = system: UACC-62 melanoma
[12] = system: 786-0 renal
[13] = system: A498 renal
[14] = system: A549 NSCLC
[15] = system: BT-549 breast
[16] = system: CCRF-CEM leukemia
[17] = system: EKVX NSCLC
[18] = system: HCT-116 colon
[19] = system: HL-60(TB) leukemia
[20] = system: HOP-62 NSCLC
[21] = system: HOP-92 NSCLC
[22] = system: HS 578T breast
[23] = system: HT29 colon
[24] = system: IGROV1 ovarian
[25] = system: K-562 leukemia
[26] = system: KM12 colon
[27] = system: M14 melanoma
[28] = system: MALME-3M melanoma
[29] = system: MCF7 breast
[30] = system: MDA-MB-435
[31] = system: MOLT-4 leukemia
[32] = system: NCI-H226 lung
[33] = system: NCI-H23 lung
[34] = system: NCI-H460 lung
[35] = system: NCI-H522 lung
[36] = system: OVCAR-3 ovarian
[37] = system: OVCAR-4 ovarian
[38] = system: OVCAR-8 ovarian
[39] = system: PC-3 prostate
[40] = system: RPMI-8226 leukemia
[41] = system: SF-268 CNS
[42] = system: SK-MEL-2 melanoma
[43] = system: SK-MEL-28 melanoma
[44] = system: SK-MEL-5 melanoma
[45] = system: SNB-19 CNS
[46] = system: SNB-75 CNS
[47] = system: SW-620 colon
[48] = system: T-47D breast
[49] = system: TK-10 renal
[50] = system: U251 CNS
[51] = system: UACC-257 melanoma
[52] = system: UO-31 renal
[53] = system: CAKI-1 renal
[54] = system: COLO 205 colon

C=CCn1c(C)nc2ccc(Nc3nc(Nc4ccc5nc(C)n(CC=C)c5c4)c4ccccc4n3)cc21
GI50 [1]: 1.64 µM | TGI [1]: 3.01 µM | GI50 [2]: 1.85 µM | TGI [2]: 3.27 µM | GI50 [3]: 1.72 µM | TGI [3]: 3.09 µM | GI50 [4]: 1.34 µM | TGI [4]: 2.62 µM | GI50 [5]: 2.22 µM | TGI [5]: 6.07 µM | GI50 [6]: 1.7 µM | TGI [6]: 3.09 µM | GI50 [7]: 1.71 µM | TGI [7]: 3.12 µM | GI50 [8]: 1.72 µM | TGI [8]: 3.09 µM | GI50 [9]: 1.62 µM | TGI [9]: 2.98 µM | GI50 [10]: 1.52 µM | TGI [10]: 3.98 µM | GI50 [11]: 1.55 µM | TGI [11]: 2.89 µM

CCOC(=O)Nc1ccc(-c2nc(-c3cccc(OCCN4CCOCC4)c3)c(-c3ccnc(Br)c3)[nH]2)cc1
GI50 [12]: 1.6 µM | TGI [12]: 4.12 µM | GI50 [13]: 1.66 µM | TGI [13]: 5.66 µM | GI50 [14]: 3.47 µM | TGI [14]: > 100 µM | GI50 [1]: 3.06 µM | TGI [1]: > 100 µM | GI50 [15]: 2.9 µM | TGI [15]: > 100 µM | GI50 [16]: 2.94 µM | TGI [16]: > 100 µM | GI50 [2]: 4.05 µM | TGI [2]: > 100 µM | GI50 [17]: 3.2 µM | TGI [17]: > 100 µM | GI50 [3]: 2.28 µM | TGI [3]: 6.11 µM | GI50 [18]: 2.98 µM | TGI [18]: > 100 µM | GI50 [19]: 2.15 µM | TGI [19]: 5.39 µM | GI50 [20]: 3.1 µM | TGI [20]: > 100 µM | GI50 [21]: 2.77 µM | TGI [21]: 7.79 µM | GI50 [22]: 1.55 µM | TGI [22]: 4.91 µM | GI50 [23]: 2.9 µM | TGI [23]: > 100 µM | GI50 [24]: 3.65 µM | TGI [24]: > 100 µM | GI50 [25]: 2.53 µM | TGI [25]: > 100 µM | GI50 [26]: 3.19 µM | TGI [26]: > 100 µM | GI50 [27]: 2.97 µM | TGI [27]: 13.7 µM | GI50 [28]: 1.6 µM | TGI [28]: 3.46 µM | GI50 [29]: 1.62 µM | TGI [29]: 4.27 µM | GI50 [4]: 3.79 µM | TGI [4]: > 100 µM | GI50 [30]: 3.07 µM | TGI [30]: 47.6 µM | GI50 [31]: 2.23 µM | TGI [31]: > 100 µM | GI50 [32]: 3.18 µM | TGI [32]: > 100 µM | GI50 [33]: 2.19 µM | TGI [33]: 5.6 µM | GI50 [34]: 3.32 µM | TGI [34]: > 100 µM | GI50 [35]: 3.31 µM | TGI [35]: > 100 µM | GI50 [5]: 3.39 µM | TGI [5]: > 100 µM | GI50 [36]: 4.3 µM | TGI [36]: > 100 µM | GI50 [37]: 4.36 µM | TGI [37]: > 100 µM | GI50 [6]: 5.11 µM | TGI [6]: > 100 µM | GI50 [38]: 3.73 µM | TGI [38]: > 100 µM | GI50 [39]: 2.87 µM | TGI [39]: > 100 µM | GI50 [40]: 1.07 µM | TGI [40]: 3.78 µM | GI50 [41]: 4.55 µM | TGI [41]: > 100 µM | GI50 [7]: 2.08 µM | TGI [7]: 7.48 µM | GI50 [42]: 2.41 µM | TGI [42]: 6.07 µM | GI50 [43]: 1.78 µM | TGI [43]: 3.75 µM | GI50 [44]: 1.74 µM | TGI [44]: 3.15 µM | GI50 [8]: 2.66 µM | TGI [8]: 6.25 µM | GI50 [9]: 3.77 µM | TGI [9]: > 100 µM | GI50 [45]: 3.81 µM | TGI [45]: > 100 µM | GI50 [46]: 1.34 µM | TGI [46]: 6.91 µM | GI50 [10]: 2.74 µM | TGI [10]: > 100 µM | GI50 [47]: 3.42 µM | TGI [47]: > 100 µM | GI50 [48]: 2.74 µM | TGI [48]: > 100 µM | GI50 [49]: 4.26 µM | TGI [49]: > 100 µM | GI50 [50]: 2.75 µM | TGI [50]: > 100 µM | GI50 [51]: 2.21 µM | TGI [51]: 5.24 µM | GI50 [11]: 2.26 µM | TGI [11]: 7.14 µM | GI50 [52]: 2.72 µM | TGI [52]: > 100 µM

Oc1cc2cccc[n+]2c2cc(Cl)ccc12
GI50 [13]: 18.2 µM | TGI [13]: 32.4 µM | GI50 [15]: 78 µM | GI50 [53]: 65.9 µM | GI50 [16]: 35.9 µM | GI50 [54]: 56.9 µM | GI50 [3]: 83.3 µM | GI50 [18]: 60.3 µM | GI50 [21]: 5.06 µM | TGI [21]: 9.88 µM | GI50 [22]: 84.5 µM | GI50 [23]: 71 µM | GI50 [4]: 29.2 µM | GI50 [30]: 14.9 µM | TGI [30]: 28.1 µM | GI50 [31]: 57.3 µM | GI50 [32]: 81 µM | GI50 [35]: 86.3 µM | GI50 [38]: 92.3 µM | GI50 [40]: 57 µM | GI50 [41]: 56.3 µM | GI50 [9]: 45.2 µM | GI50 [46]: 91.5 µM | GI50 [10]: 48.4 µM | GI50 [52]: 57.9 µM
